We go through 18 compounds from US12264156B2, “Compounds and pharmaceutical compositions thereof for the treatment of diseases” (GALAPAGOS NV, priority 2018, dated 2025).

Holding throughout (format): biochemical
Holding throughout (settings): ADP-Glo SIK kinase assay

The target of one test is T1, SIK3 (Homo sapiens, UniProt Q9Y2K2).
T1 construct: purchased SignalChem S12-11G-100
Put plainly: ADP-Glo kinase assay, SIK3. In a few lines:
(§1)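 Wells with 1% DMSO or 10 μM staurosporine (final) define the control window. The kinase reaction with substrate and ATP runs 120 min at RT, followed by ADP-Glo detection: ATP depletion (40 min) and ADP-derived luminescence (30 min).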

The next test deals with T2, SIK2 (Homo sapiens, UniProt Q9H0K1).
T2 construct: purchased ThermoFisher Scientific PV4792
T2 sequence (Q9H0K1 whole entry): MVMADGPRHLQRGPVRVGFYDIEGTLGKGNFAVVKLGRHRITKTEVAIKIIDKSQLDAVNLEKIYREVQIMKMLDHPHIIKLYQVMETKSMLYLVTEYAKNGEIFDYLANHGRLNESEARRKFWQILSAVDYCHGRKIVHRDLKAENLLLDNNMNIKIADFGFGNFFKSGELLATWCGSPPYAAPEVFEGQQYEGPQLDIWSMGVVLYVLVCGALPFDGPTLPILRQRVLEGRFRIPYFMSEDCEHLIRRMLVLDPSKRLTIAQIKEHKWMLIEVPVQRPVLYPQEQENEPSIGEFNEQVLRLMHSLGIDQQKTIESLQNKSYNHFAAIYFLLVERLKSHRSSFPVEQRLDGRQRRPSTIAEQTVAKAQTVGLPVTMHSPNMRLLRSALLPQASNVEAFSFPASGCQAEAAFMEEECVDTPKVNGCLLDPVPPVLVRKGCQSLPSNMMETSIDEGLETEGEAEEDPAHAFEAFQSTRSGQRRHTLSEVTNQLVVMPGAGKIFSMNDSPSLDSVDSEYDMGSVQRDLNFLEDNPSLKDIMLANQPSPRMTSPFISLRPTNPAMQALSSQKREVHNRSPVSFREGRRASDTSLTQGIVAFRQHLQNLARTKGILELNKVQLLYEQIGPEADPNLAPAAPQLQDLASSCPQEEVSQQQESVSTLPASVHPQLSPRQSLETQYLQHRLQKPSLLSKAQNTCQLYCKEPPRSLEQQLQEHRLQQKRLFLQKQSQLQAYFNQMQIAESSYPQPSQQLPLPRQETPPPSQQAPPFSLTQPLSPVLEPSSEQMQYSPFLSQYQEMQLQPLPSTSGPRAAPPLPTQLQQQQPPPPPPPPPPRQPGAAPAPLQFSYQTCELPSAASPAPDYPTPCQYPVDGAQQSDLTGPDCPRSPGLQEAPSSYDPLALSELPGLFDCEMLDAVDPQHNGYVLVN
Put plainly: ADP-Glo kinase assay, SIK2. In a few lines: as §1

Another test concerns the target T3, SIK1 (Homo sapiens, UniProt P57059).
T3 construct: purchased Carna Biosciences 02-131
Put plainly: ADP-Glo kinase assay, SIK1. In a few lines: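 Enzyme–substrate mix was started with ATP and incubated 120 min at RT. ADP formed was quantified by ADP-Glo: 40 min ATP depletion, then 30 min detection reagent converting ADP to ATP for luciferase luminescence, which rises with kinase activity. Controls: 1% DMSO and 10 μM staurosporine (final).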

T3 sequence (P57059 whole entry): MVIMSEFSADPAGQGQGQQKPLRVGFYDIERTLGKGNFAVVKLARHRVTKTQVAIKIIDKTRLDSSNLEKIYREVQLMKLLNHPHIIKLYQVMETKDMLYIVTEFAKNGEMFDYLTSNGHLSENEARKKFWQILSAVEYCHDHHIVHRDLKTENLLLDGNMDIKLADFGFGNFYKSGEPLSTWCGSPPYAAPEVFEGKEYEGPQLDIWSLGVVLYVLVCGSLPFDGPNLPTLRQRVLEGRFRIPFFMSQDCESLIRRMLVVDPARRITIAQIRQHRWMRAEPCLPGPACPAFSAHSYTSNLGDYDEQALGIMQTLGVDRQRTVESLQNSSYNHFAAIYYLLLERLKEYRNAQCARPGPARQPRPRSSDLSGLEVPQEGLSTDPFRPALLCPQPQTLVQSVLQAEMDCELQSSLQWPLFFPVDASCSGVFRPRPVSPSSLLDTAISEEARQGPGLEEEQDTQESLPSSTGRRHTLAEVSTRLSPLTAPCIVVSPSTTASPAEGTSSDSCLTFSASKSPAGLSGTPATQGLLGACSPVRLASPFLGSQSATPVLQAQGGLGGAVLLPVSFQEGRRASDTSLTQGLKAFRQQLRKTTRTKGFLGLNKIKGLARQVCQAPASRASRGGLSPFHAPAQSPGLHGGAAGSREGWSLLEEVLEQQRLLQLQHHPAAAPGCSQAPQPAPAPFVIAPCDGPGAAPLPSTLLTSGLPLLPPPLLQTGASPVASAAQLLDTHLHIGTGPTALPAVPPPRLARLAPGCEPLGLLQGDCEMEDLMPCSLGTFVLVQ
T1 sequence (Q9Y2K2 whole entry): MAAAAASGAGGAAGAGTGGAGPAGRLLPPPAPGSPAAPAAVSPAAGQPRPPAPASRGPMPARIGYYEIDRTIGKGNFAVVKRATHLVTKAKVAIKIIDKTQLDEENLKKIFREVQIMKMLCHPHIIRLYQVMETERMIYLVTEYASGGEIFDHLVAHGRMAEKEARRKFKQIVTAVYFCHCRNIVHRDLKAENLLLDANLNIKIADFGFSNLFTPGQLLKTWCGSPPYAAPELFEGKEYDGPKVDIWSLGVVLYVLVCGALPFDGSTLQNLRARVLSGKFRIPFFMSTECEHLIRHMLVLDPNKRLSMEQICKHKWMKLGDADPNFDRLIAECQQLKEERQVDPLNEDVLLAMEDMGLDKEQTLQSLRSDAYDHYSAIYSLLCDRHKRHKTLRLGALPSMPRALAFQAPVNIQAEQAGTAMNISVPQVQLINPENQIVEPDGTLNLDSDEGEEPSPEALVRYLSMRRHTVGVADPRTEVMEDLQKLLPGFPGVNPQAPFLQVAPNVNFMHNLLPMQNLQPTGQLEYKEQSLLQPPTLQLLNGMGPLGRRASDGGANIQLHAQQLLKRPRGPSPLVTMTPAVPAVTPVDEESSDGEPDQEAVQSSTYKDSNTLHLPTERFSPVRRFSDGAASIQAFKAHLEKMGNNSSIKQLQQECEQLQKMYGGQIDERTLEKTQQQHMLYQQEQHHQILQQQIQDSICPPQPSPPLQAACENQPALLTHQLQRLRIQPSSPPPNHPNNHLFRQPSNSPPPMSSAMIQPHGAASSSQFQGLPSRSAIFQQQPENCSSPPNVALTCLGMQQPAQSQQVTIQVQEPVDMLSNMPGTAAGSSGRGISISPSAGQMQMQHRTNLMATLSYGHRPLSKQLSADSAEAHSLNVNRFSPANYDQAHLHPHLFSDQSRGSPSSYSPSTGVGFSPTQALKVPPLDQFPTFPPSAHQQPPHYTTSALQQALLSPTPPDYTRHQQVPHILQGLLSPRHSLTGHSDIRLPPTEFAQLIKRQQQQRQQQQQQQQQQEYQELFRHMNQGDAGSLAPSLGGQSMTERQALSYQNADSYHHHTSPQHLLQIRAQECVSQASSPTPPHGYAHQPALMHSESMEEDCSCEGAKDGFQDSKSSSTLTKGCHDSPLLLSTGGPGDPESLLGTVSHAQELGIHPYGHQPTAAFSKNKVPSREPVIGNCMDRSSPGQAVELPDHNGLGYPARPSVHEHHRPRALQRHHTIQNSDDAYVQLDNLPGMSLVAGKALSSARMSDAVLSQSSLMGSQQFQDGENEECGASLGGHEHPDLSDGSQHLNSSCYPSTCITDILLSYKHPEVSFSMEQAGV

In the case of `COc1cc(-c2cnc3cc(Oc4ccccc4)ccn23)cc(OC(F)F)c1C(=O)NC1CC1` [compound 157, N-cyclopropyl-2-(difluoromethoxy)-6-methoxy-4-(7-phenoxyimidazo[1,2-a]pyridin-3-yl)benzamide], the IC50 at SIK3 fell in the range of 0.01 to 10 nM; against SIK2, 100 to 500 nM; at SIK1, 100 to 500 nM.

Turning to `CCC(N)COc1ccn2c(-c3cc(OC)c(C(=O)NC4CC4)c(OC(F)F)c3)cnc2c1` (stereo not drawn) [compound 131, 4-[7-(2-aminobutoxy)imidazo[1,2-a]pyridin-3-yl]-N-cyclopropyl-2-(difluoromethoxy)-6-methoxy-benzamide], the values for the IC50 on SIK3, at SIK2 and on SIK1 were 0.01 to 10 nM, 0.01 to 10 nM and 10 to 100 nM, respectively.

For `COc1cc(-c2cnc3cc(OCC4CNC(=O)C4)ccn23)cc(OC(F)F)c1C(=O)NC1CC1` (stereo not drawn) [compound 102, N-cyclopropyl-2-(difluoromethoxy)-6-methoxy-4-[7-[(5-oxopyrrolidin-3-yl)methoxy]imidazo[1,2-a]pyridin-3-yl]benzamide], the IC50 against SIK3 fell in the range of 0.01 to 10 nM; against SIK2, 0.01 to 10 nM; on SIK1, 10 to 100 nM.

For `COc1cc(-c2cnc3cc(OC[C@H]4CCCN4CC(F)F)ccn23)cc(OC(F)F)c1C(=O)NC1CC1` [compound 80, N-cyclopropyl-4-[7-[[(2R)-1-(2,2-difluoroethyl)pyrrolidin-2-yl]methoxy]imidazo[1,2-a]pyridin-3-yl]-2-(difluoromethoxy)-6-methoxy-benzamide], the IC50 against SIK3 lay in the range of 0.01 to 10 nM; at SIK2 it was 0.01 to 10 nM; on SIK1, 10 to 100 nM.

`COc1cc(-c2cnc3cc(OCC4CC(=O)N(C)C4)ccn23)cc(OC(F)F)c1C(=O)NC1CC1` (stereo not drawn) [compound 26, N-cyclopropyl-2-(difluoromethoxy)-6-methoxy-4-[7-[(1-methyl-5-oxo-pyrrolidin-3-yl)methoxy]imidazo[1,2-a]pyridin-3-yl]benzamide]: the IC50 on SIK3 is 0.01 to 10 nM; against SIK2, 0.01 to 10 nM; against SIK1 it was 10 to 100 nM.

In the case of `COc1cc(-c2cnc3cc(OCCN(C)c4ncccn4)ccn23)cc(OC(F)F)c1C(=O)NC1CC1` [compound 238, N-cyclopropyl-2-(difluoromethoxy)-6-methoxy-4-[7-[2-[methyl(pyrimidin-2-yl)amino]ethoxy]imidazo [1,2-a]pyridin-3-yl]benzamide], the IC50 on SIK3, on SIK2 and against SIK1 was 0.01 to 10 nM in each case.

Turning to `CCC(COc1ccn2c(-c3cc(OC)c(C(=O)NC4CC4)c(OC(F)F)c3)cnc2c1)N(C)C` (stereo not drawn) [compound 203], the IC50 against SIK3 was in the range of 0.01 to 10 nM; on SIK2, 10 to 100 nM; against SIK1, 100 to 500 nM.

As to `COc1cc(-c2cnc3cc(OCC4CCCCN4C(C)C)ccn23)cc(OC(F)F)c1C(=O)NC1CC1` (stereo not drawn) [compound 148, N-cyclopropyl-2-(difluoromethoxy)-4-[7-[(1-isopropyl-2-piperidyl)methoxy]imidazo [1,2-a]pyridin-3-yl]-6-methoxy-benzamide], the results for the IC50 at SIK3, on SIK2 and against SIK1 were 0.01 to 10 nM, 0.01 to 10 nM and 100 to 500 nM, respectively.

Regarding `CN(C)CCOc1ccn2c(-c3cc(F)c(C(=O)NC4CC4)c(OC(F)F)c3)cnc2c1` [compound 146, N-cyclopropyl-2-(difluoromethoxy)-4-[7-[2-(dimethylamino)ethoxy]imidazo[1,2-a]pyridin-3-yl]-6-fluoro-benzamide], the IC50 is 10 to 100 nM on SIK3, 10 to 100 nM on SIK2 and over 500 nM against SIK1.

Regarding `COc1cc(-c2cnc3cc(OCCN(C)c4ccncn4)ccn23)cc(OC(F)F)c1C(=O)NC1CC1` [compound 239, N-cyclopropyl-2-(difluoromethoxy)-6-methoxy-4-[7-[2-[methyl(pyrimidin-4-yl)amino]ethoxy]imidazo [1,2-a]pyridin-3-yl]benzamide], the IC50 on SIK3, against SIK2 and at SIK1 was 0.01 to 10 nM each time.

As for `COc1cc(-c2cnc3cc(OCCN(C)c4ccncc4)ccn23)cc(OC(F)F)c1C(=O)NC1CC1` [compound 223, N-cyclopropyl-2-(difluoromethoxy)-6-methoxy-4-[7-[2-[methyl(4-pyridyl)amino]ethoxy]imidazo[1,2-a]pyridin-3-yl]benzamide], the IC50 against SIK3, at SIK2 and on SIK1 was 0.01 to 10 nM in each case.

As for `COc1cc(-c2cnc3cc(OCC4CC4)ccn23)cc(OC(F)F)c1C(=O)NC1CC1` [compound 96, N-cyclopropyl-4-[7-(cyclopropylmethoxy)imidazo[1,2-a]pyridin-3-yl]-2-(difluoromethoxy)-6-methoxy-benzamide], the results for the IC50 against SIK3, against SIK2 and against SIK1 were 0.01 to 10 nM, 0.01 to 10 nM and 10 to 100 nM, respectively.

Consider `COc1cc(-c2cnc3cc(OCCN4CCOC(C)(C)C4)ccn23)cc(OC(F)F)c1C(=O)NC1CC1` [compound 194, N-cyclopropyl-2-(difluoromethoxy)-4-[7-[2-(2,2-dimethylmorpholin-4-yl)ethoxy]imidazo[1,2-a]pyridin-3-yl]-6-methoxy-benzamide], for which the IC50 at SIK3 lay in the range of 0.01 to 10 nM; on SIK2, 0.01 to 10 nM; at SIK1, 10 to 100 nM.

Take `COc1cc(-c2cnc3cc(OCC4COCCN4)ccn23)cc(OC(F)F)c1C(=O)NC1CC1` (stereo not drawn) [Cpd 113, N-cyclopropyl-2-(difluoromethoxy)-6-methoxy-4-[7-(morpholin-3-ylmethoxy)imidazo[1,2-a]pyridin-3-yl]benzamide]: the IC50 against SIK3 lay within 0.01 to 10 nM; at SIK2, 0.01 to 10 nM; on SIK1, 10 to 100 nM.

In the case of `COc1cc(-c2cnc3cc(OCCCN4CCc5ncccc5C4)ccn23)cc(OC(F)F)c1C(=O)NC1CC1` [compound 311, N-cyclopropyl-2-(difluoromethoxy)-4-[7-[3-(7,8-dihydro-5H-1,6-naphthyridin-6-yl)propoxy]imidazo[1,2-a]pyridin-3-yl]-6-methoxy-benzamide], the values for the IC50 against SIK3, at SIK2 and on SIK1 were 0.01 to 10 nM, 0.01 to 10 nM and 10 to 100 nM, respectively.

Consider `COc1cc(-c2cnc3cc(OCC4CCCO4)ccn23)cc(OC(F)F)c1C(=O)NC1CC1` (stereo not drawn) [compound 93, N-cyclopropyl-2-(difluoromethoxy)-6-methoxy-4-[7-(tetrahydrofuran-2-ylmethoxy)imidazo[1,2-a]pyridin-3-yl]benzamide], for which the IC50 fell in the range of 0.01 to 10 nM on SIK3, 0.01 to 10 nM against SIK2 and 10 to 100 nM at SIK1.

Consider `COc1cc(-c2cnc3cc(OCC(N)C4CCOC4)ccn23)cc(OC(F)F)c1C(=O)NC1CC1` (stereo not drawn) [compound 134, 4-[7-(2-amino-2-tetrahydrofuran-3-yl-ethoxy)imidazo[1,2-a]pyridin-3-yl]-N-cyclopropyl-2-(difluoromethoxy)-6-methoxy-benzamide], for which the IC50 lay within 0.01 to 10 nM against SIK3, 0.01 to 10 nM against SIK2 and 10 to 100 nM against SIK1.

As to `COc1cc(-c2cnc3cc(OCC4CCCC4)ccn23)cc(OC(F)F)c1C(=O)NC1CC1` [compound 61, 4-[7-(cyclopentylmethoxy)imidazo[1,2-a]pyridin-3-yl]-N-cyclopropyl-2-(difluoromethoxy)-6-methoxy-benzamide], the IC50 at SIK3, on SIK2 and against SIK1 was 0.01 to 10 nM each time.
